From US8048455B2, “Treatment of cancer and inflammatory disorder” (Academia Sinica, priority 2006, dated 2011)

Legend:
NF-κB•DNA complex = experiment: Electrophoretic mobility shift assay of NF-κB binding to consensus DNA in LPS-stimulated RAW 264.7 cells; format: cell-based, murine; conditions: 100 μM, LPS 1 μg/mL, 90 min
Method: EMSA was performed with the […]™ Chemiluminescent EMSA kit (Pierce Biotechnology, Rockford, Ill.). […] The DNA-protein complexes were subjected to 5-10% gradient PAGE. Competition assay with unlabeled oligonucleotide (cold DNA) was performed in parallel. […]

NO = experiment: Plasma nitrite concentration in SNP-treated mice; format: in vivo, Female ICR mice; conditions: topical pretreatment 30 min before SNP; dLGG 10 mg/site, PTIO 3.5 mg/site
Method: Female ICR mice were topically treated on their shaven back area of a 2-cm diameter (3.14 cm^2/site/mouse) with vehicle control (acetone), SNP (positive control), or with dLGG or PTIO for 30 minutes before SNP application. Mouse plasma samples were subjected to determine the nitrite content followed a published method (Moshage et al. Clin Chem 1995; 41:892-6).
To examine the capability of dLGG to scavenge NO in vivo, the plasma NO concentration in SNP-insulted mice was determined with or without pretreatment with dLGG. Female ICR mice were transdermally treated with 200 μL acetone (vehicle control) or SNP (5.96 mg/site) only for 15 minutes, or pre-treated with dLGG (10 mg/site) or PTIO (3.5 mg/site) for 30 minutes before SNP treatment.

human COX-2 promoter = experiment: COX-2 promoter-driven luciferase reporter assay in TPA-treated B16 melanoma cells; format: cell-based, murine; conditions: reference control
Source text: A double-mutated COX-2 promoter containing mutations on both NF-κB sites was also constructed (FIG. 2). PPGL-3-Basic vector was used as a negative control in luciferase assays. COX-2 reporter activity in arbitrary units (AU) was normalized to that for the Renilla luciferase reporter.
Murine melanoma B-16 cells co-transfected with the full-length pCOX-2-Luc and internal control plasmid pRL-TK-Luc plasmid constructs were stimulated without (control) or with TPA, in the absence or presence of the indicated concentrations of CREa8. An amount of 10 μg of total protein lysate was subjected to dual luciferase reporter assay. The induction fold of COX promoter activity by TPA treatment only is presented as 100%. The statistical analyses between […] and CREa8, aspirin, or indomethacin (Indo.) treatment were performed using Student's t-test.
B-16 cells were co-transfected with the full-length pCOX-2-Luc and internal control Renilla pRL-TK-Luc plasmid constructs with the LIPOFECTAMINE reagent (Invitrogen). The cells were then stimulated with vehicle (0.001% DMSO) or with 50 ng/mL TPA, in the absence or presence of dLGG for 6 hours. Ten μg of total protein lysate prepared with Passive Lysis Buffer (Promega) was subjected to dual luciferase reporter assay. The induction fold of COX-2 promoter activity by TPA treatment only is presented as 100%.
The contribution of specific cis-acting element binding sites on the transcription of COX-2 was examined. Data were obtained from 2 to 3 experiments with 3 to 6 replicates and expressed as mean±SD. Two-way ANOVA was used to analyze significance of differences.

B16 melanoma = experiment: In vivo inhibition of B16 melanoma growth in C57BL/6J mice
Method: The chemopreventive effect of the CREa8 subfraction was evaluated on tumor growth using the B16 melanoma C57BL/6J mouse system. Six-week-old animals (4 groups of mice, 5 in each group) were used in this experiment. Group 1 mice (Sham control) were intraperitoneally (i.p.) injected with 20 μL of DMSO every 2 days throughout the experimental period, except 100 μL PBS was injected on day 0. Group 4 mice (Tumor control) were pre-treated with DMSO every 2 days, starting from day—14, for 2 weeks, inoculated with B16 tumor cells (1×10^6 cells/100 μL PBS) subcutaneously (s.c.) on the abdominal area on day 0, and then injected with DMSO every 2 days until day 21. Group 2 mice were i.p. pre-treated with CREa8 (10 mg/kg body weight per dose) every 2 days, starting from day—14, for 2 weeks, s.c. inoculated with B16 tumor cells on day 0, and then continuously treated with CREa8 (i.p.) every 2 days until day 21. Group 3 mice were similarly pre-treated with DMSO every 2 days for 2 weeks, inoculated with B16 tumor cells on day 0, and then treated with cisplatin (i.p.) every 2 days until day 21. The test mice were monitored daily, and body weights and tumor size (average of 2 dimensions) recorded every 2 days. At the end of the experiment (day 21), tumors were excised and weighed.
The cancer prevention efficacy of the dLGG-rich fraction (CREa8) was examined in vivo in 4 groups of mice according to the method described above. Cisplatin, a cancer chemotherapeutic, was used as a reference control.

Structure (SMILES): CC/C=C\C/C=C\C/C=C\CCCCCCCC(=O)OC[C@@H](O)CO[C@@H]1O[C@H](CO)[C@H](O)[C@H](O)[C@H]1O [1LGG, 1-O-α-linolenoyl-3-O-β-galactopyranosyl-sn-glycerol]
- Inhibition of NF-κB•DNA complex formation (structure-activity study) (NF-κB•DNA complex): less effective than dLGG and dLG

Structure (SMILES): CC/C=C\C/C=C\C/C=C\CCCCCCCC(=O)O[C@H](CO)CO[C@@H]1O[C@H](CO)[C@H](O)[C@H](O)[C@H]1O [2LGG, 2-O-α-linolenoyl-3-O-β-galactopyranosyl-sn-glycerol]
- Inhibition of NF-κB•DNA complex formation (structure-activity study) (NF-κB•DNA complex): less effective than dLGG and dLG

Structure (SMILES): CC1(C)N([O])C(c2ccccc2)=[N+]([O-])C1(C)C [PTIO, 2-phenyl-4,4,5,5-tetramethylimidazoline-1-oxyl-3-oxide, reference compound]
- SNP-induced increase of nitrite plasma concentration (NO): suppressed

Structure (SMILES): CCCCCCCCCCCCCCCCCC(=O)O [SA, stearic acid, reference compound]
- Inhibition of NF-κB•DNA complex formation (structure-activity study) (NF-κB•DNA complex): little or no detectable effect

Structure (SMILES): CC(=O)Oc1ccccc1C(=O)O [aspirin, reference compound]
- Suppression of COX-2 promoter activity (human COX-2 promoter; 45 μg/mL): 19%

Structure (SMILES): N.N.[Cl][Pt][Cl] [cisplatin]
- Average tumor size (B16 melanoma; day 7, i.p. every 2 days, tumor control 0.73 cm): 0.29 cm
- Average tumor size, of the tumor control (B16 melanoma; day 17): 73%
- Tumor weight to body weight ratio (B16 melanoma; day 21, tumor control 31.3%): 25.2%
- Body weights versus other groups (B16 melanoma; throughout treatment): no significant differences

Structure (SMILES): CC/C=C\C/C=C\C/C=C\CCCCCCCC(=O)OC[C@H](CO)OC(=O)CCCCCCC/C=C\C/C=C\C/C=C\CC [dLG, 1,2-di-O-α-linolenoyl-sn-glycerol]
- Inhibition of NF-κB•DNA complex formation (structure-activity study) (NF-κB•DNA complex): almost completely inhibited

Structure (SMILES): COc1ccc2c(c1)c(CC(=O)O)c(C)n2C(=O)c1ccc(Cl)cc1 [indomethacin, reference compound]
- Suppression of COX-2 promoter activity (human COX-2 promoter; 15 μg/mL): 28%
